# Key:
# [1] = In vitro drug permeation from plastisol patches through human skin (paper example); format: in vitro ADME
# [2] = test system: BALB/c female mice; assay: Contact hypersensitivity, TNBS sensitization / TNCB ear challenge (ear swelling); format: in vivo; conditions: 20 µg intradermally; for % SUPPRESSION: TNBS 2.45 mg
# [3] = Percutaneous permeation of urocanic acid isomers through human cadaver skin (Franz cell diffusion chambers); format: in vitro ADME; conditions: in words
# Protocol: Skin permeation experiments were undertaken to measure the flux of cis-UCA and the trans-UCA) through human skin. This information is required for topical delivery of cis-UCA using a TDS.
# cis-UCA was prepared by ultraviolet irradiation of solutions of trans-UCA (obtained from Sigma Chemical Co., St. Louis, MO), as described above (see Example 1 above).
# For skin permeation experiments, human cadaver skin was obtained and sectioned on a dermatome to yield a partial thickness skin of about 400 µm. Partial thickness skin samples were transferred to standard Franz cell diffusion chambers with the stratum corneum side up, and equilibrated with phosphate buffered saline (PBS) at pH 7.2. at 35°C in standard thermal blocks (Pierce Reacti-Therm).
# Three different solution of UV-irradiated UCA were prepared. All samples were mixtures of both cis-UCA and trans-UCA, contained about between 55% to 67% cis-UCA. The three different solutions (0.5 ml) were applied to the skin samples in the donor chamber of the diffusion chamber, and fractions of the receptor solution (saline) were collected and the amount of cis and trans isomers that permeated through the skin determined by standard HPLC methods. […] The tissue extracts were neutralized and aliquots analyzed by HPLC.
# [4] = test system: BALB/c female mice; assay: Contact hypersensitivity, TNBS sensitization / TNCB ear challenge (ear swelling); format: in vivo; conditions: other experiments, compared with cis-UCA
# Protocol: BALB/c female mice were maintained in a specific pathogen-free colony. Age-matched mice between 8 and 12 weeks of age were maintained in filter-protected cages and fed mouse chow and water ad libitum. Lighting was controlled to provide 12 hours light-dark cycles.
# A 7% (w/v) working solution of trinitrobenzene sulfonate (TNBS) was prepared in distilled water. […] For induction of sensitization, each of 5 Balb/c mice received epicutaneous application of 35 µg of TNBS via a Hilltop chamber for 5 hours.
# A contact hypersensitivity response was elicited on day 5 by challenging the right ear of each mouse with 20 µl of 1% trinitronchlorobenzene (TNCB) (in acetone). Ear thickness was measured with a spring-loaded caliper immediately before challenge, and at 24 and 48 hours after challenge. Ear thickness was measured in mm X 10^-3.
# The statistical significance of differences in the contact hypersensitivity response between control and treated mice was determined using Student's t test for two independent variables. Each group contained five mice. Negative control mice were treated for 24 hours with 100 µl of PBS, pH 5.5, and challenged on the right ear 5 days later with 20 µl of 1% TNCB.
# The mice were then epicutaneously sensitized with 100 µl of 0.035% TNBS (w/v) in PBS, pH 5.5.
# For pretreatment plus co-administration, mice were first pretreated for 24 hours as above. Thereafter, 6000 µg of UCA (100 µl of 6% solution, 60 mg/ml in PBS pH 5.5) were placed in the Hilltop chamber along with 35 µg of TNBS.
# Sensitization with TNBS was induced as described above.
structure (smiles),measurement,setting,value
CCCCCCCC/C=C\CCCCCCCC(=O)O [oleic acid],permeation rate of ISDN,[1],significantly enhances
"O=C(O)c1cc(=O)c2c(OCC(O)COc3cccc4oc(C(=O)O)cc(=O)c34)cccc2o1 [sodium cromolyn, reference compound]",suppression of contact sensitization (in words),[2],failed to suppress contact sensitization
same,enhancement in the contact sensitivity response,[2]; 24 and 48 hours together,14-17%
same,% SUPPRESSION,[2]; 24 Hours,+14.1%
same,% SUPPRESSION,[2]; 48 Hours,+17.0%
"O=C(O)/C=C/c1cnc[nH]1 [trans-UCA, trans-urocanic acid, reference compound]",fluxes through human skin (comparison of isomers),[3],comparable fluxes
same,suppressive activity on contact sensitization (in words),[4],much less suppressive activity
